Source: US8455497B2, “Inhibitors of aspartyl protease” (Vertex Pharmaceuticals Incorporated, priority 1999, dated 2013)
Read-outs that look alike come from different tables or passages of the source.

Columns and labels:
[1] = test system: EP13 multi protease inhibitor resistant virus; assay: Anti-viral activity against resistant virus EP13 in MT4 cells; assay type: cell-based, HIV-1
Procedure, shortened: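 MT4 cells infected for 1 h at 37 °C, MOI 100×TCID50, then diluted 6-fold onto pre-diluted compound and cultured 5 days (5% CO2). Viable-cell DNA content estimated by propidium iodide. EP13 carries protease mutations M46I, L63P, A71V, V82F/L, I84V, no RT mutations.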

[2] = test system: HIV-1 (strain IIIB); assay: Antiviral activity assay in MT4 cells (propidium iodide based); assay type: cell-based; details: Human immunodeficiency virus 1, IIIB; wild type HIV-1 virus, MT4 cells; read-out: Wildtype virus - IC50
Procedure, shortened: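 Compound serial dilutions in RPMI/FCS received MT4 cells pre-infected 1 hr at 37°C with HIV-1 IIIB at 100×TCID50. After 5 days' culture and Nonidet-40 lysis, well DNA content was measured by propidium iodide dye; mock-infected cells served as control.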

[3] = test system: D545701-14 multi protease inhibitor resistant virus; assay: Anti-viral activity against resistant virus D545701-14 in MT4 cells; assay type: cell-based, HIV-1
[4] = Human immunodeficiency virus 1, MT4, read-out: EP13 mutant IC50, EP13 multi protease inhibitor resistant virus, MT4 cells
[5] = Human immunodeficiency virus 1, MT4, read-out: D545701-14 mutant - IC50, D545701-14 multi protease inhibitor resistant virus, MT4 cells
[6] = Human immunodeficiency virus 1, MT4, read-out: EP13 mutant IC50
[7] = Human immunodeficiency virus 1, MT4, read-out: D545701-14 mutant - IC50

SMILES	IC50 [1, 4]	IC50 [2]	IC50 [3, 5]	IC50 [1, 6]	IC50 [3, 7]
CC(C)CN(C[C@@H](O)[C@H](Cc1ccc(OCCCN2CCN(C)CC2)cc1)NC(=O)O[C@H]1CO[C@H]2OCC[C@H]21)S(=O)(=O)c1ccc2c(c1)OCO2 [Compound 282, (3R,3aS,6aR)-hexahydrofuro[2,3-b]furan-3-yl (1S,2R)-3-[(1,3-benzodioxol-5-ylsulfonyl)(isobutyl)amino]-2-hydroxy-1-{4-[3-(4-methyl-1-piperazinyl)propoxy]benzyl}propylcarbamate]	1 to 10 nM	10 to 100 nM	10 to 100 nM	–	–
COCCNCCCOc1ccc(C[C@H](NC(=O)O[C@H]2CO[C@H]3OCC[C@H]32)[C@H](O)CN(CC(C)C)S(=O)(=O)c2ccc3c(c2)OCO3)cc1 [Compound 283, (3R,3aS,6aR)-hexahydrofuro[2,3-b]furan-3-yl (1S,2R)-3-[(1,3-benzodioxol-5-ylsulfonyl)(isobutyl)amino]-2-hydroxy-1-(4-{3-[(2-methoxyethyl)amino]propoxy}benzyl) propylcarbamate]	1 to 10 nM	10 to 100 nM	10 to 100 nM	–	–
CC(C)CN(C[C@@H](O)[C@H](Cc1ccc(OCCCn2cccn2)cc1)NC(=O)O[C@H]1CO[C@H]2OCC[C@H]21)S(=O)(=O)c1ccc2c(c1)OCO2 [Compound 284, (3R,3aS,6aR)-hexahydrofuro[2,3-b]furan-3-yl (1S,2R)-3-[(1,3-benzodioxol-5-ylsulfonyl)(isobutyl)amino]-2-hydroxy-1-{4-[3-(1H-pyrazol-1-yl)propoxy]benzyl}propylcarbamate]	1 to 10 nM	1 to 10 nM	1 to 10 nM	–	–
CCCCNC(=O)CCCOc1ccc(C[C@H](NC(=O)O[C@H]2CO[C@H]3OCC[C@H]32)[C@H](O)CN(CC(C)C)S(=O)(=O)c2ccc3c(c2)OCO3)cc1 [Compound 288, (3R,3aS,6aR)-hexahydrofuro[2,3-b]furan-3-yl (1S,2R)-3-[(1,3-benzodioxol-5-ylsulfonyl)(isobutyl)amino]-1-{4-[4-(butylamino)-4-oxobutoxy]benzyl}-2-hydroxypropylcarbamate]	1 to 10 nM	1 to 10 nM	1 to 10 nM	–	–
CC(C)CN(C[C@@H](O)[C@H](Cc1ccc(OCc2cccc(C#N)c2)cc1)NC(=O)O[C@H]1CO[C@H]2OCC[C@H]21)S(=O)(=O)c1cccc(N)c1 [Compound 289]	1 to 10 nM	1 to 10 nM	1 to 10 nM	–	–
CC(C)CN(C[C@@H](O)[C@H](Cc1ccc(OCCCCN)cc1)NC(=O)O[C@H]1CO[C@H]2OCC[C@H]21)S(=O)(=O)c1cccc(N)c1 [Compound 292]	10 to 100 nM	10 to 100 nM	10 to 100 nM	–	–
CC(C)CN(C[C@@H](O)[C@H](Cc1ccc(OCc2ccccn2)cc1)NC(=O)O[C@H]1CO[C@H]2OCCC21)S(=O)(=O)c1cccc(N)c1 (stereo partly drawn) [Compound 293]	1 to 10 nM	1 to 10 nM	1 to 10 nM	–	–
CC(=O)Oc1ccc(S(=O)(=O)N(CC(C)C)C[C@@H](O)[C@H](Cc2ccc(OCc3ccccn3)cc2)NC(=O)O[C@H]2COC3OCC[C@H]32)cc1C (stereo partly drawn) [Compound 294]	1 to 10 nM	1 to 10 nM	1 to 10 nM	–	–
Cc1cc(S(=O)(=O)N(CC(C)C)C[C@@H](O)[C@H](Cc2ccc(OCc3ccccn3)cc2)NC(=O)O[C@H]2CO[C@H]3OCC[C@H]32)ccc1O [Compound 295]	1 to 10 nM	1 to 10 nM	1 to 10 nM	–	–
CC(C)CN(C[C@@H](O)[C@H](Cc1ccc(OCc2ccccn2)cc1)NC(=O)O[C@@H]1CO[C@H]2OCC[C@H]21)S(=O)(=O)c1ccc(N)cc1 [Compound 299, (3S,3aS,6aR)-hexahydrofuro[2,3-b]furan-3-yl (1S,2R)-3-[[(4-aminophenyl)sulfonyl]-(isobutyl)amino]-2-hydroxy-1-[4-(2-pyridinylmethoxy)benzyl]propylcarbamate]	1 to 10 nM	1 to 10 nM	1 to 10 nM	–	–
Cc1nc(COc2ccc(C[C@H](NC(=O)O[C@@H]3CO[C@H]4OCC[C@H]43)[C@H](O)CN(CC(C)C)S(=O)(=O)c3ccc(N)cc3)cc2)cs1 [Compound 300, (3S,3aS,6aR)-hexahydrofuro[2,3-b]furan-3-yl (1S,2R)-3-[[(4-aminophenyl)sulfonyl]-(isobutyl)amino]-2-hydroxy-1-{4-[(2-methyl-1,3-thiazol-4-yl)methoxy]benzyl}propylcarbamate]	1 to 10 nM	1 to 10 nM	1 to 10 nM	–	–
CC(C)CN(C[C@@H](O)[C@H](Cc1ccc(OCc2cccc(C#N)c2)cc1)NC(=O)O[C@@H]1CO[C@H]2OCC[C@H]21)S(=O)(=O)c1ccc(N)cc1 [Compound 301, (3S,3aS,6aR)-hexahydrofuro[2,3-b]furan-3-yl (1S,2R)-3-[[(4-aminophenyl)sulfonyl](isobutyl)amino]-1-{4-[(3-cyanobenzyl)oxy]benzyl}-2-hydroxypropylcarbamate]	1 to 10 nM	1 to 10 nM	1 to 10 nM	–	–
COC(=O)CCCOc1ccc(C[C@H](NC(=O)OC2CO[C@H]3OCCC23)[C@H](O)CN(CC(C)C)S(=O)(=O)c2ccc3c(c2)OCO3)cc1 (stereo partly drawn) [Compound 303, Methyl 4-(4-{(2S,3R)-2-({[3R,3aS,6aR)-hexahydrofuro[2,3-b]furan-3-yloxy]carbonyl}amino)-4-[(1,3-benzodioxol-5-ylsulfonyl)(isobutyl)amino]-3-hydroxybutyl}phenoxy) butanoate]	10 to 100 nM	10 to 100 nM	10 to 100 nM	–	–
CC(C)CN(C[C@@H](O)[C@H](Cc1ccc(OCC(F)(F)F)cc1)NC(=O)O[C@H]1CO[C@H]2OCC[C@H]21)S(=O)(=O)c1ccc2c(c1)OCO2 [Compound 304, (3R,3aS,6aR)-hexahydrofuro[2,3-b]furan-3-yl (1S,2R)-3-[(1,3-benzodioxol-5-ylsulfonyl)(isobutyl)amino]-2-hydroxy-1-[4-(2,2,2-trifluoroethoxy)benzyl]propylcarbamate]	1 to 10 nM	1 to 10 nM	1 to 10 nM	–	–
CC(C)(CCCC#N)CN(C[C@@H](O)[C@H](Cc1ccc(OCc2ccccc2)cc1)NC(=O)O[C@H]1CO[C@H]2OCC[C@H]21)S(=O)(=O)c1ccc2c(c1)OCO2 [Compound 305, (3R,3aS,6aR)-Hexahydrofuro[2,3-b]furan-3-yl (1S,2R)-3-[(1,3-benzodioxol-5-ylsulfonyl)(5-cyano-2,2-dimethylpentyl)amino]-1-[4-(benzyloxy)benzyl]-2-hydroxypropylcarbamate]	1 to 10 nM	1 to 10 nM	1 to 10 nM	–	–
CC(C)CN(C[C@@H](O)[C@@H](N)Cc1ccc(OCc2ccccc2)cc1)S(=O)(=O)c1ccc2c(c1)OCO2 [Compound 308, N-{(2R,3S)-3-Amino-4-[4-(benzyloxy)phenyl]-2-hydroxybutyl}-N-isobutyl-1,3-benzodioxole-5-sulfonamide]	1 to 10 nM	10 to 100 nM	1 to 10 nM	–	–
CNC(=O)Oc1ccc(C[C@H](NC(=O)O[C@H]2CO[C@H]3OCC[C@H]32)[C@H](O)CN(CC(C)C)S(=O)(=O)c2ccc3c(c2)OCO3)cc1 [Compound 309, (3R,3aS,6aR)-Hexahydrofuro[2,3-b]furan-3-yl (1S,2R)-3-[(1,3-benzodioxol-5-ylsulfonyl)(isobutyl)amino]-2-hydroxy-1-(4-{[(methylamino)carbonyl]oxy}benzyl)propylcarbamate]	–	1 to 10 nM	–	1 to 10 nM	1 to 10 nM
CC(C)CN(C[C@@H](O)[C@H](Cc1ccc(OC(=O)NC(C)C)cc1)NC(=O)O[C@H]1CO[C@H]2OCC[C@H]21)S(=O)(=O)c1ccc2c(c1)OCO2 [Compound 310, (3R,3aS,6aR)-Hexahydrofuro[2,3-b]furan-3-yl (1S,2R)-3-[(1,3-benzodioxol-5-ylsulfonyl)(isobutyl)amino]-2-hydroxy-1-(4-{[(isopropylamino)carbonyl]oxy}benzyl)propylcarbamate]	1 to 10 nM	1 to 10 nM	10 to 100 nM	–	–
CC(C)CN(C[C@@H](O)[C@H](Cc1ccc(OC(=O)N(C)C)cc1)NC(=O)O[C@H]1CO[C@H]2OCC[C@H]21)S(=O)(=O)c1ccc2c(c1)OCO2 [Compound 311, (3R,3aS,6aR)-Hexahydrofuro[2,3-b]furan-3-yl (1S,2R)-3[(1,3-benzodioxol-5-ylsulfonyl)(isobutyl)amino]-1-(4-{[(dimethylamino)carbonyl]oxy}benzyl)-2-hydroxypropylcarbamate]	–	1 to 10 nM	–	1 to 10 nM	10 to 100 nM
CC(C)CN(C[C@@H](O)[C@H](Cc1ccc(OC(N)=O)cc1)NC(=O)O[C@H]1CO[C@H]2OCC[C@H]21)S(=O)(=O)c1ccc2c(c1)OCO2 [Compound 312, (3R,3aS,6aR)-Hexahydrofuro[2,3-b]furan-3-yl (1S,2R)-1-{4-[(aminocarbonyl)oxy]benzyl}-3-[(1,3-benzodioxol-5-ylsulfonyl)(isobutyl)amino]-2-hydroxypropylcarbamate]	1 to 10 nM	10 to 100 nM	10 to 100 nM	–	–
CC(C)CN(C[C@@H](O)[C@H](Cc1ccc(OC(=O)NCCn2ccnc2)cc1)NC(=O)O[C@H]1CO[C@H]2OCC[C@H]21)S(=O)(=O)c1ccc2c(c1)OCO2 [Compound 313, (3R,3aS,6aR)-Hexahydrofuro[2,3-b]furan-3-yl (1S,2R)-3-[(1,3-benzodioxol-5-ylsulfonyl)(isobutyl)amino]-2-hydroxy-1-{4-[({[2-(1H-imidazol-1-yl)ethyl]amino}carbonyl)oxy]benzyl}propylcarbamate]	1 to 10 nM	10 to 100 nM	1 to 10 nM	–	–
